8 compounds from ChEMBL document CHEMBL4177599, “The antitubercular activity of various nitro(triazole/imidazole)-based compounds” (Bioorg Med Chem, 2017) can be followed below.

SMILES strings stand for the structures. In brackets after ≈: the same amount, converted by molar mass.

Holding throughout (type): functional, organism-based
The subject of test [1] is Mycobacterium tuberculosis. Description: Antitubercular activity against isoniazid-resistant Mycobacterium tuberculosis H37Rv INH-R1 harboring katG Y155 mutant after 5 days.
Test [2] has as its system Mycobacterium tuberculosis. Description: Antitubercular activity against rifampicin-resistant Mycobacterium tuberculosis H37Rv RIF-R1 harboring rpoB S522L mutant after 5 days.
Test [3] relates to Mycobacterium tuberculosis. Description: Antitubercular activity against fluoroquinolone-resistant Mycobacterium tuberculosis H37Rv harboring gyrB D94N mutant after 5 days.
Test [4] concerns Mycobacterium tuberculosis. Nature of the test: Antitubercular activity against isoniazid-resistant Mycobacterium tuberculosis INH-R2 ATCC 35822 after 5 days. Conditions: INH-R2 ATCC 35822, 120 h.
In test [5] the test system is Mycobacterium tuberculosis. Nature of the test: Antitubercular activity against rifampicin-resistant Mycobacterium tuberculosis H37Rv RIF-R2 ATCC 35828 after 5 days. The note with it: H37Rv RIF-R2 ATCC 35828, 120 h.

The MIC is the lowest concentration found to suppress growth. On to `O=C(NCCCCn1cnc([N+](=O)[O-])n1)c1sc2ccccc2c1Cl`, for which the MIC in test [1] turned out to be 7.5 µM (≈ 2.85 µg/mL); in test [2], 7.9 µM (≈ 3 µg/mL); in test [3], 7.1 µM (≈ 2.7 µg/mL); in test [4], 7.3 µM (≈ 2.77 µg/mL); in test [5], 6.4 µM (≈ 2.43 µg/mL).

In the case of `O=C(NCCCCn1cnc([N+](=O)[O-])n1)c1nc2ccccc2s1`, the MIC in test [1] was 11.1 µM (≈ 3.84 µg/mL); in test [2], 8.9 µM (≈ 3.08 µg/mL); in test [3], 8.2 µM (≈ 2.84 µg/mL); in test [4], 7.9 µM (≈ 2.74 µg/mL); in test [5] it was 7.9 µM (≈ 2.74 µg/mL).

A word on the IC50: it is the midpoint of a concentration-inhibition curve. As a reminder, the IC90 is the point of the concentration-response curve where the effect stands at 90%. The low end stands for greater potency, the high end for weaker potency. Consider `O=C(Cn1cnc([N+](=O)[O-])n1)N1CCN(Cc2ccc(Cl)c(Cl)c2)CC1`, for which the IC50 was 9 µM in test [1]; 4.9 µM in test [2]; 7.4 µM in test [3]; 7.3 µM in test [4]; 9.4 µM in test [5]. Further, the IC90 came to 14 µM in test [1]; 8.3 µM in test [2]; 11 µM in test [3]; 12 µM in test [4]; 12 µM in test [5]. Moreover, the MIC in test [1] is 14 µM (≈ 5.59 µg/mL); in test [2], 7.7 µM (≈ 3.07 µg/mL); in test [3], 12 µM (≈ 4.79 µg/mL); in test [4], 12 µM (≈ 4.79 µg/mL); in test [5] it was 12 µM (≈ 4.79 µg/mL).

Consider `O=C(Cn1cnc([N+](=O)[O-])n1)N1CCN(C(c2ccccc2)c2ccc(Cl)cc2)CC1` (stereo not given), for which the IC50 in test [1] worked out at 48 µM; in test [2], 27 µM; in test [3], 46 µM; in test [4], 29 µM; in test [5], 47 µM. In addition, the IC90 turned out to be 82 µM in test [1]; 32 µM in test [2]; 78 µM in test [3]; 35 µM in test [4]; 68 µM in test [5]. Further, the MIC in test [1] came to 79 µM (≈ 34.8 µg/mL); in test [2], 42 µM (≈ 18.5 µg/mL); in test [3], 72 µM (≈ 31.7 µg/mL); in test [4], 45 µM (≈ 19.8 µg/mL); in test [5] it was 71 µM (≈ 31.3 µg/mL).

Regarding `CC(O)(Cn1cnc([N+](=O)[O-])n1)c1ccc(-c2ccc(C#N)cc2)cc1` (stereo not given), the minimum inhibitory concentration (MIC) in test [1] is >200 µM; in test [2], >200 µM; in test [3] it was >200 µM; in test [4], > 200 µM; in test [5], > 200 µM.

As to `NNC(=O)c1ccncc1` [ISONIAZID], the MIC in test [1] is >200 µM; in test [2] it was 0.31 µM (≈ 0.0425 µg/mL); in test [3], 0.35 µM (≈ 0.048 µg/mL); in test [4], > 200 µM; in test [5] it was 0.67 µM (≈ 0.0919 µg/mL).

In the case of `C[C@H]1COc2c(N3CCN(C)CC3)c(F)cc3c(=O)c(C(=O)O)cn1c23.C[C@H]1COc2c(N3CCN(C)CC3)c(F)cc3c(=O)c(C(=O)O)cn1c23.O` [LEVOFLOXACIN], the MIC in test [1] came to 1.1 µM; in test [2] it was 0.85 µM; in test [3], 14 µM; in test [4], 1.3 µM; in test [5], 1.4 µM.

Regarding `CO[C@H]1/C=C/O[C@@]2(C)Oc3c(C)c(O)c4c(O)c(c(/C=N/N5CCN(C)CC5)c(O)c4c3C2=O)NC(=O)/C(C)=C\C=C\[C@H](C)[C@H](O)[C@@H](C)[C@@H](O)[C@@H](C)[C@H](OC(C)=O)[C@@H]1C` [RIFAMPIN], the MIC in test [1] is 0.012 µM (≈ 0.00988 µg/mL); in test [2], 7.2 µM (≈ 5.93 µg/mL); in test [3], >0.04 µM; in test [4] it was 0.011 µM (≈ 0.00905 µg/mL); in test [5] it was > 50 µM.
